Laboratory results as given in ChEMBL document CHEMBL4138232, “O2-(2,4-dinitrophenyl)diazeniumdiolates derivatives: Design, synthesis, cytotoxic evaluation and reversing MDR in MCF-7/ADR cells” (Eur J Med Chem, 2018).

System: HCT-116
Experiment: Cytotoxicity against human HCT116 cells overexpressing GST-Pi assessed as inhibition of cell viability at 10 uM after 48 hrs by MTT assay relative to control
Assay type: functional
Details: HCT-116, 48 h

Row | Compound | inhibition at 10 µM [%]
1 | CCCCCOc1ccc(C2CC(c3cccc(Oc4cc(O/N=[N+](\[O-])N5CCCCC5)c([N+](=O)[O-])cc4[N+](=O)[O-])c3)=NN2C(C)=O)cc1OC (stereo not given) | 63.7
2 | CN(C)c1ccc(/C=C/C(=O)c2cccc(Oc3cc(O/N=[N+](\[O-])N4CCOCC4)c([N+](=O)[O-])cc3[N+](=O)[O-])c2)cc1 | 57.1
3 | CN(C)c1ccc(/C=C/C(=O)c2cccc(Oc3cc(O/N=[N+](\[O-])N4CCCCC4)c([N+](=O)[O-])cc3[N+](=O)[O-])c2)cc1 | 65.9
4 | Cc1ccc(/C=C/C(=O)c2cccc(Oc3cc(O/N=[N+](\[O-])N4CCCCC4)c([N+](=O)[O-])cc3[N+](=O)[O-])c2)cc1 | 62.2
5 | CCOC(=O)N1CCN(/[N+]([O-])=N/Oc2ccc([N+](=O)[O-])cc2[N+](=O)[O-])CC1 | 78
6 | Cc1ccc(/C=C/C(=O)c2cccc(Oc3cc(O/N=[N+](\[O-])N4CCOCC4)c([N+](=O)[O-])cc3[N+](=O)[O-])c2)cc1 | 61.2

System: not listed separately
Experiment: Selectivity ratio of IC50 for human A549 cells to IC50 for human MDA-MB-231 cells
Assay type: functional
Details: not given

Row | Compound | Ratio IC50
7 | Cc1ccc(/C=C/C(=O)c2cccc(Oc3cc(O/N=[N+](\[O-])N4CCCCC4)c([N+](=O)[O-])cc3[N+](=O)[O-])c2)cc1 | 1.5
8 | Cc1ccc(/C=C/C(=O)c2cccc(Oc3cc(O/N=[N+](\[O-])N4CCOCC4)c([N+](=O)[O-])cc3[N+](=O)[O-])c2)cc1 | 1.5

System: MDA-MB-231
Experiment: Antiproliferative activity against human MDA-MB-231 cells after 48 hrs by MTT assay relative to control
Assay type: functional, cell-based
Details: MDA-MB-231, 48 h

Row | Compound | IC50 [µM]
9 | Cc1ccc(/C=C/C(=O)c2cccc(Oc3cc(O/N=[N+](\[O-])N4CCCCC4)c([N+](=O)[O-])cc3[N+](=O)[O-])c2)cc1 | 3.74
10 | CCOC(=O)N1CCN(/[N+]([O-])=N/Oc2ccc([N+](=O)[O-])cc2[N+](=O)[O-])CC1 | 5.75
11 | Cc1ccc(/C=C/C(=O)c2cccc(Oc3cc(O/N=[N+](\[O-])N4CCOCC4)c([N+](=O)[O-])cc3[N+](=O)[O-])c2)cc1 | 2.03

System: MCF7
Experiment: Cytotoxicity against ADR-sensitive human MCF7 cells assessed as inhibition of cell viability after 48 hrs by MTT assay
Assay type: cell-based
Details: MCF7, 48 h

Row | Compound | IC50 [µM]
12 | Cc1ccc(/C=C/C(=O)c2cccc(Oc3cc(O/N=[N+](\[O-])N4CCCCC4)c([N+](=O)[O-])cc3[N+](=O)[O-])c2)cc1 | 59.1
13 | Cc1ccc(/C=C/C(=O)c2cccc(Oc3cc(O/N=[N+](\[O-])N4CCOCC4)c([N+](=O)[O-])cc3[N+](=O)[O-])c2)cc1 | 18.8

Species on record: Homo sapiens
Experiment: Inhibition of MDR in human MCF7/ADR cells assessed as potentiation of adriamycin-induced antiproliferative activity by measuring fold reduction in adriamycin IC50 at 10 uM after 48 hrs by MTT assay
Assay type: cell-based
Details: not given

Row | Compound | fold change (FC)
14 | Cc1ccc(/C=C/C(=O)c2cccc(Oc3cc(O/N=[N+](\[O-])N4CCCCC4)c([N+](=O)[O-])cc3[N+](=O)[O-])c2)cc1 | 51.2
15 | Cc1ccc(/C=C/C(=O)c2cccc(Oc3cc(O/N=[N+](\[O-])N4CCOCC4)c([N+](=O)[O-])cc3[N+](=O)[O-])c2)cc1 | 46.9

System: MCF-10A
Experiment: Antiproliferative activity against human MCF10A cells after 48 hrs by MTT assay relative to control
Assay type: cell-based
Details: not given

Row | Compound | IC50 [µM]
16 | Cc1ccc(/C=C/C(=O)c2cccc(Oc3cc(O/N=[N+](\[O-])N4CCCCC4)c([N+](=O)[O-])cc3[N+](=O)[O-])c2)cc1 | 128
17 | CCOC(=O)N1CCN(/[N+]([O-])=N/Oc2ccc([N+](=O)[O-])cc2[N+](=O)[O-])CC1 | 4.91
18 | Cc1ccc(/C=C/C(=O)c2cccc(Oc3cc(O/N=[N+](\[O-])N4CCOCC4)c([N+](=O)[O-])cc3[N+](=O)[O-])c2)cc1 | 44.7

Target: T1, Glutathione S-transferase P (Homo sapiens, UniProt P09211)
Experiment: Prodrug activation in human HCT116 cells assessed as GST-Pi-mediated NO release at 5 uM after 24 hrs by nitrate reductase assay
Assay type: cell-based
Details: not given

T1 sequence (P09211 whole entry): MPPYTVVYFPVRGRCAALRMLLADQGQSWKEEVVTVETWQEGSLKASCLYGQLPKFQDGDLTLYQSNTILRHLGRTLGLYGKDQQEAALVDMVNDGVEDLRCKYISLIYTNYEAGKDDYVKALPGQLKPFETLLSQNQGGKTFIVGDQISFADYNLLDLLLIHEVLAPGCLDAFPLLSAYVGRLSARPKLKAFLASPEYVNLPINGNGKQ

Row | Compound | Drug metabolism
19 | CCOC(=O)N1CCN(/[N+]([O-])=N/Oc2ccc([N+](=O)[O-])cc2[N+](=O)[O-])CC1 | Metabolite_Detected

System: U2OS
Experiment: Antiproliferative activity against human U2OS cells after 48 hrs by MTT assay relative to control
Assay type: functional, cell-based
Details: not given

Row | Compound | IC50 [µM]
20 | Cc1ccc(/C=C/C(=O)c2cccc(Oc3cc(O/N=[N+](\[O-])N4CCCCC4)c([N+](=O)[O-])cc3[N+](=O)[O-])c2)cc1 | 5.22
21 | CCOC(=O)N1CCN(/[N+]([O-])=N/Oc2ccc([N+](=O)[O-])cc2[N+](=O)[O-])CC1 | 6.27
22 | Cc1ccc(/C=C/C(=O)c2cccc(Oc3cc(O/N=[N+](\[O-])N4CCOCC4)c([N+](=O)[O-])cc3[N+](=O)[O-])c2)cc1 | 5.26

System: HCT-116
Experiment: Antiproliferative activity against human HCT116 cells after 48 hrs by MTT assay relative to control
Assay type: functional, cell-based
Details: HCT-116, 48 h

Row | Compound | IC50 [µM]
23 | Cc1ccc(/C=C/C(=O)c2cccc(Oc3cc(O/N=[N+](\[O-])N4CCCCC4)c([N+](=O)[O-])cc3[N+](=O)[O-])c2)cc1 | 6.31
24 | CCOC(=O)N1CCN(/[N+]([O-])=N/Oc2ccc([N+](=O)[O-])cc2[N+](=O)[O-])CC1 | 4.86
25 | Cc1ccc(/C=C/C(=O)c2cccc(Oc3cc(O/N=[N+](\[O-])N4CCOCC4)c([N+](=O)[O-])cc3[N+](=O)[O-])c2)cc1 | 4.08

System: not listed separately
Experiment: Selectivity ratio of IC50 for human MCF10A cells to IC50 for human MDA-MB-231 cells
Assay type: toxicity
Details: MCF10A cells versus MDA-MB-231 cells, read-out: Ratio IC50

Row | Compound | selectivity ratio
26 | Cc1ccc(/C=C/C(=O)c2cccc(Oc3cc(O/N=[N+](\[O-])N4CCCCC4)c([N+](=O)[O-])cc3[N+](=O)[O-])c2)cc1 | 34.2
27 | Cc1ccc(/C=C/C(=O)c2cccc(Oc3cc(O/N=[N+](\[O-])N4CCOCC4)c([N+](=O)[O-])cc3[N+](=O)[O-])c2)cc1 | 22

System: not listed separately
Experiment: Selectivity ratio of IC50 for human U2OS cells to IC50 for human MDA-MB-231 cells
Assay type: functional
Details: not given

Row | Compound | Ratio IC50
28 | Cc1ccc(/C=C/C(=O)c2cccc(Oc3cc(O/N=[N+](\[O-])N4CCCCC4)c([N+](=O)[O-])cc3[N+](=O)[O-])c2)cc1 | 1.4
29 | Cc1ccc(/C=C/C(=O)c2cccc(Oc3cc(O/N=[N+](\[O-])N4CCOCC4)c([N+](=O)[O-])cc3[N+](=O)[O-])c2)cc1 | 2.6

Target: T1, Glutathione S-transferase P
Experiment: Prodrug activation in human HCT116 cells assessed as GST-Pi-mediated NO release at 5 uM after 24 hrs in presence of GST-Pi inhibitor etacrynic acid by nitrate reductase assay
Assay type: cell-based
Details: not given

Row | Compound | Drug metabolism
30 | CCOC(=O)N1CCN(/[N+]([O-])=N/Oc2ccc([N+](=O)[O-])cc2[N+](=O)[O-])CC1 | Metabolite_Notdetected
31 | Cc1ccc(/C=C/C(=O)c2cccc(Oc3cc(O/N=[N+](\[O-])N4CCOCC4)c([N+](=O)[O-])cc3[N+](=O)[O-])c2)cc1 | Metabolite_Notdetected

System: not listed separately
Experiment: Cytotoxicity against ADR-sensitive human MCF7 cells assessed as inhibition of cell viability at 10 uM after 48 hrs by MTT assay relative to control
Assay type: cell-based
Details: read-out: INH

Row | Compound | cytotoxicity at 48 h, 10 µM [%]
32 | Cc1ccc(/C=C/C(=O)c2cccc(Oc3cc(O/N=[N+](\[O-])N4CCCCC4)c([N+](=O)[O-])cc3[N+](=O)[O-])c2)cc1 | 14.2
33 | Cc1ccc(/C=C/C(=O)c2cccc(Oc3cc(O/N=[N+](\[O-])N4CCOCC4)c([N+](=O)[O-])cc3[N+](=O)[O-])c2)cc1 | 21.3

System: not listed separately
Experiment: Selectivity ratio of IC50 for human HCT116 cells to IC50 for human MDA-MB-231 cells
Assay type: functional
Details: not given

Row | Compound | Ratio IC50
34 | Cc1ccc(/C=C/C(=O)c2cccc(Oc3cc(O/N=[N+](\[O-])N4CCCCC4)c([N+](=O)[O-])cc3[N+](=O)[O-])c2)cc1 | 1.7
35 | Cc1ccc(/C=C/C(=O)c2cccc(Oc3cc(O/N=[N+](\[O-])N4CCOCC4)c([N+](=O)[O-])cc3[N+](=O)[O-])c2)cc1 | 2

System: A549
Experiment: Antiproliferative activity against human A549 cells after 48 hrs by MTT assay relative to control
Assay type: functional, cell-based
Details: A549, 48 h

Row | Compound | IC50 [µM]
36 | Cc1ccc(/C=C/C(=O)c2cccc(Oc3cc(O/N=[N+](\[O-])N4CCCCC4)c([N+](=O)[O-])cc3[N+](=O)[O-])c2)cc1 | 5.66
37 | CCOC(=O)N1CCN(/[N+]([O-])=N/Oc2ccc([N+](=O)[O-])cc2[N+](=O)[O-])CC1 | 6.53
38 | Cc1ccc(/C=C/C(=O)c2cccc(Oc3cc(O/N=[N+](\[O-])N4CCOCC4)c([N+](=O)[O-])cc3[N+](=O)[O-])c2)cc1 | 3.15

Target: T1, Glutathione S-transferase P
Experiment: Prodrug activation in human HCT116 cells assessed as GST-Pi-mediated NO release at 5 uM after 24 hrs in presence of NO scavenger carboxy-PTIO by nitrate reductase assay
Assay type: cell-based
Details: not given

Row | Compound | Drug metabolism
39 | CCOC(=O)N1CCN(/[N+]([O-])=N/Oc2ccc([N+](=O)[O-])cc2[N+](=O)[O-])CC1 | Metabolite_Notdetected
40 | Cc1ccc(/C=C/C(=O)c2cccc(Oc3cc(O/N=[N+](\[O-])N4CCOCC4)c([N+](=O)[O-])cc3[N+](=O)[O-])c2)cc1 | Metabolite_Notdetected
